Results as given in patent US7041276B2, “Methods of screening agents for activity using teleosts” (priority 1998, dated 2006).
“Also recorded” adds a separate entry of the source.

Tests used:
[1] = test system: zebrafish embryos; experiment: Five-day zebrafish toxicity testing; assay type: in vivo; details: for Zebrafish specific toxicity observed: five-day exposure
Description: Fertilized zebrafish embryos were obtained by natural spawning in our aquaculture facility. To reduce variations between batches, randomized samples of embryos from 3 or 4 independent matings were used. The test medium was prepared by combining 5 g of Instant Ocean Salt with 3 g of CaSO4 in 25 liters of distilled water, according to Westerfield, supra. The embryos were maintained in the test medium throughout the experiments. Embryos at 24 hours of development (with chorion) were exposed continuously for five days to chemical compounds at different concentrations of the chemical compounds and controls. In general, the concentrations ranged from 100 nanomolar (nM) to 100 micromolar (μM). Tests were repeated four times for each series of dilutions, and a standard deviation was calculated for each treatment (see “Statistical Methods” section). Ten embryos per concentration were exposed in a total volume of 1 ml (constant ratio of 100 μl/embryo) using a 24 multi-well plate. (Other sizes of multi-well plates, such as 96-well plates can also be used to facilitate screening.) The compounds were renewed daily. In all cases, 0.1% of dimethyl sulfoxide (DMSO) was used as a carrier solvent during the treatment. Controls with and without 0.1% DMSO were performed in all experiments. This approach has long been used to introduce anesthetics and other chemicals into fish embryos (Westerfield, supra).
Experiments were carried out at a constant temperature (28–28.5° C.) in the dark to protect the compounds from decomposition due to light exposure. Dead embryos were removed daily, counted, and used to calculate the Median Lethal Concentration (LC50, see “Statistical Methods” section herein). Each day, surviving embryos were analyzed visually under a dissecting binocular microscope (Zeiss, amplification 30–50×). Macroscopic malformations (such as axial defects, embryolethality, growth inhibition, general malformations, including microcephaly, macrocephaly, tail truncation, tail malformation, loss of axial structures, such as somites, etc.) were observed, classified, and counted to assess whole animal toxicity. Compounds that were lethal or induced these or any noted malformations or disruptions during development (e.g., during the first 5 days of development) were further examined for toxic effects on organs. The embryonic developmental stage that is affected by the toxic compound can be determined. Organ toxicity can be assessed in surviving embryos using in situ hybridization, enzymatic assays, and immunochemistry procedures.
Toxic activity in the kidney (Pronephros) can be assessed visually by colorimetric staining of the kidney of the treated whole animal (e.g., zebrafish). Zebrafish pronephros express high levels of the enzyme alkaline phosphatase that can be easily assayed using a chromogenic dye. To stain kidneys in zebrafish embryos, embryos were fixed with 2% paraformaldehyde overnight at 4° C. and then treated with methanol 100% for 30 minutes at room temperature. […]
For the concentrations tested with aspirin and dexamethasone in these studies, there was no partial lethality and the geometric mean of the parameters “no mortality” (0%) and “mortality” (100%) of the effect concentration was taken as the LC50 and binomial confidence limits were calculated according to Stephan, “Methods for Calculating LD50” in Aquatic Toxicology and Hazard Evaluation (F. L. Mayce and J. L. Hamelink eds.) ASTM STP 634, pp. 65–84. […]

[2] = test system: liver of zebrafish embryos; experiment: Liver staining with streptavidin-peroxidase (DAB visual, ABTS colorimetric); assay type: in vivo
Text: Toxic activity in the liver of the treated whole animal can be assessed visually by using a rapid colorimetric staining procedure. This procedure is based on the use of a streptavidin (avidin) conjugated reporter enzyme, such as peroxidase, to detect naturally biotinylated carboxylase enzymes in the liver, gut, and digestive tube of whole animals, such as zebrafish embryos. These biotinyl-lysine containing enzymes, such as acetyl-CoA carboxylase and other carboxylases, are predominantly located in the liver and digestive tube. As a result, staining is organ specific (FIG. 11). Quantitative biotinylated assessment of the liver can be made. By visual detection of biotinylation, size and location of the liver can be determined.
Zebrafish embryos (4, 5 or 6 days old) were fixed with 4% paraformaldehyde for 1 hour at room temperature and treated with methanol 100% overnight at −20° C. The embryos were rehydrated and washed with PBST. […] The embryos were then washed twenty minutes three times with PBST and stained for peroxidase with two different dyes: Diaminobenzidine (DAB) (Pierce) (insoluble) to assess liver staining and 2,2′-Azino-bis(3-Ethylbenz-thiazoline-6-sulfonic acid)(ABTS)(Sigma)(soluble) to measure a quantitative visual signal using a colorimetric method. […] The ABTS signal was detected by measuring the absorbance of the solution at 405 nanometer […] using a spectrophotometer. […]

[3] = test system: mice; details: i.p. (intraperitoneal); cited from earlier work
[4] = test system: rats; details: i.p. (intraperitoneal); cited from earlier work
[5] = test system: mice and rats; details: TOXNET Web Search and other sources; cited from earlier work

Compound: C[C@@H]1C[C@H]2[C@@H]3CCC4=CC(=O)C=C[C@]4(C)[C@@]3(F)[C@@H](O)C[C@]2(C)[C@@]1(O)C(=O)CO [Dexamethasone]
- Zebrafish LD50 ([1]; embryos exposed continuously for five days from 24 hours of development): 324 mg/L
- Zebrafish specific toxicity observed [1]: liver,; also recorded: gastro-
- Zebrafish specific toxicity observed ([1]; listed as dexamethasone): Liver and gastrointestinal toxicity
- liver size compared with control embryos ([2]; 100 μM for five days, six day old embryo): dramatic reduction in liver size
- reduction of the colorimetric liver signal (ABTS, 405 nm) compared with untreated embryos ([2]; 100 μM, five days): about 70%
- Mammalian models LD50 [3]: 410 (mice, i.p.) mg/kg
- Mammalian models LD50 [4]: 54 (rats, i.p.) mg/kg
- Mammalian models specific toxicity (from the literature) [5]: liver,; also recorded: gastro-
